Patent US9976141B2, “Compositions and methods for inhibiting gene expression of Hif2alpha” (Arrowhead Madison Inc., priority 2015, dated 2018)

Test system: human (tumor) Hif2α (EPAS1) mRNA
Assay: Hif2α knockdown in orthotopic RCC tumor bearing mice, single injection of RNAi trigger-delivery polymer conjugate, RT-qPCR (Table 7)
Format: in vivo
Conditions: single tail vein injection, relative to isotonic glucose
In short: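 A single intravenous dose of Hif2α RNAi trigger–delivery polymer conjugate, or isotonic glucose vehicle, was given to nude mice with subcapsular A498-SEAP renal tumours (about 5–6 weeks old). At the indicated time, tumour RNA was assayed by biplex TaqMan qPCR against CycA, and relative expression was calculated by ΔΔCT versus vehicle.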

[1] = RNAi trigger 100 μg, polymer 064 250 μg
[2] = RNAi trigger 50 μg, polymer 064 125 μg
[3] = RNAi trigger 115 μg, polymer 100A 375 μg

AD01888 (antisense UCUAGCAACAAAACCUUAATT; sense UUAAGGUUUUGUUGCUAGAT; Hif2alpha RNAi agent antisense strand; modified_base 2,4,6,8,10,12,14,15,18 /mod_base = “2′-deoxy-2′-fluoro corresponding nucleoside”; modified_base 1,3,5,7,9,11,13,16,17,19 /mod_base = “2′-O-methyl corresponding nucleoside”; modified_base 2,3,21 /mod_base = “5′-phosphorothioate corresponding nucleotide”; Hif2alpha RNAi agent sense strand; modified_base 1,3,4,7,9,11,13,15,17,19 /mod_base = “2′-deoxy-2′-fluoro corresponding nucleoside”; modified_base 2,5,6,8,10,12,14,16,18 /mod_base = “2′-O-methyl corresponding nucleoside”; modified_base 20 /mod_base = “3′-3′-linked nucleotide”; modified_base)
Relative Expression day 4 (Hif2α mRNA in kidney tumor) [1]: 0.209

AD03254 (antisense AUUCAUGAAAUCGUUACGUUG; sense ACGUAACGAUUUCAUGAAUT; Hif2alpha RNAi agent antisense strand; modified_base 2,4,6,8,14 /mod_base = “2′-deoxy-2′-fluoro corresponding nucleoside”; modified_base 1,3,5,7,9,10,11,12,13,15,16,17,18,19,20,21 /mod_base = “2′-O-methyl corresponding nucleoside”; modified_base 2,3,20,21 /mod_base = “5′-phosphorothioate corresponding nucleotide”; Hif2alpha RNAi agent sense strand; modified_base 7,8,9 /mod_base = “2′-deoxy-2′-fluoro corresponding nucleoside”; modified_base 1,2,3,4,5,6,10,11,12,13,14,15,16,17,18,19 /mod_base = “2′-O-methyl corresponding nucleoside”; modified_base 20 /mod_base = “3′-3′-linked nucleotide”; modi)
Relative Expression day 4 (Hif2α mRNA in kidney tumor) [2]: 0.295

AD02949 (antisense UUUCAUGAAAUCGUUACGUUG; sense ACGUAACGAUUUCAUGAAAT; Hif2alpha RNAi agent antisense strand; modified_base 2,4,6,8,10,14,16,18 /mod_base = “2′-deoxy-2′-fluoro corresponding nucleoside”; modified_base 1,3,5,7,9,11,12,13,15,17,19,20,21 /mod_base = “2′-O-methyl corresponding nucleoside”; modified_base 2,3,20,21 /mod_base = “5′-phosphorothioate corresponding nucleotide”; Hif2alpha RNAi agent sense strand; modified_base 7,9,13 /mod_base = “2′-deoxy-2′-fluoro corresponding nucleoside”; modified_base 1,2,3,4,5,6,8,10,11,12,14,15,16,17,18,19 /mod_base = “2′-O-methyl corresponding nucleoside”; modified_base 20 /mod_base = “3′-3′-linked nucleotide”; modi)
Relative Expression day 4 (Hif2α mRNA in kidney tumor) [2]: 0.176

AD01886 (antisense UCUAGCAACAAAACCUUAATT; sense UUAAGGUUUUGUUGCUAGAT; Hif2alpha RNAi agent antisense strand; modified_base 2,4,6,8,10,13,14,16,18 /mod_base = “2′-deoxy-2′-fluoro corresponding nucleoside”; modified_base 1,3,5,7,9,11,12,15,17,19 /mod_base = “2′-O-methyl corresponding nucleoside”; modified_base 2,3,21 /mod_base = “5′-phosphorothioate corresponding nucleotide”; Hif2alpha RNAi agent sense strand; modified_base 1,3,5,8,9,11,13,15,17,19 /mod_base = “2′-deoxy-2′-fluoro corresponding nucleoside”; modified_base 2,4,6,7,10,12,14,16,18 /mod_base = “2′-O-methyl corresponding nucleoside”; modified_base 20 /mod_base = “3′-3′-linked nucleotide”; modified_base)
Relative Expression day 4 (Hif2α mRNA in kidney tumor) [1]: 0.292

AD01290 (antisense TUUCAUGAAAUCGUUACGUTT; sense ACGUAACGAUUUCAUGAAAT; Hif2alpha RNAi agent antisense strand; modified_base 2,4,6,8,10,12,14,16,18 /mod_base = “2′-deoxy-2′-fluoro corresponding nucleoside”; modified_base 3,5,7,9,11,13,15,17,19 /mod_base = “2′-O-methyl corresponding nucleoside”; modified_base 21 /mod_base = “5′-phosphorothioate corresponding nucleotide”; Hif2alpha RNAi agent sense strand; modified_base 1,3,7,9,11,13,15,17,19 /mod_base = “2′-deoxy-2′-fluoro corresponding nucleoside”; modified_base 2,4,5,6,8,10,12,14,16,18 /mod_base = “2′-O-methyl corresponding nucleoside”; modified_base 20 /mod_base = “3′-3′-linked nucleotide”; modified_base 1 /mo)
Relative Expression day 4 (Hif2α mRNA in kidney tumor) [3]: 0.39

AD01524 (antisense TUUCAUGAAAUCGUUACGUTT; sense ACGUAACGAUUUCAUGAAAT; Hif2alpha RNAi agent antisense strand; modified_base 2,4,6,8,10,12,14,16,18 /mod_base = “2′-deoxy-2′-fluoro corresponding nucleoside”; modified_base 3,5,7,9,11,13,15,17,19 /mod_base = “2′-O-methyl corresponding nucleoside”; modified_base 2,3,21 /mod_base = “5′-phosphorothioate corresponding nucleotide”; Hif2alpha RNAi agent sense strand; modified_base 1,3,5,7,9,11,13,15,17,19 /mod_base = “2′-deoxy-2′-fluoro corresponding nucleoside”; modified_base 2,4,6,8,10,12,14,16,18 /mod_base = “2′-O-methyl corresponding nucleoside”; modified_base 20 /mod_base = “3′-3′-linked nucleotide”; modified_base 1)
Relative Expression day 4 (Hif2α mRNA in kidney tumor) [3]: 0.26

AD02874 (antisense UUUCAUGAAAUCGUUACGUUG; sense UAUACGUAACGAUUUCAUGAAAT; Hif2alpha RNAi agent antisense strand; modified_base 2,4,6,8,10,14,16,18 /mod_base = “2′-deoxy-2′-fluoro corresponding nucleoside”; modified_base 1,3,5,7,9,11,12,13,15,17,19,20,21 /mod_base = “2′-O-methyl corresponding nucleoside”; modified_base 2,3,20,21 /mod_base = “5′-phosphorothioate corresponding nucleotide”; Hif2alpha RNAi agent sense strand; modified_base 2 modified base = “2′-hydroxy corresponding nucleoside”; modified_base 10,11,12,16 /mod_base = “2′-deoxy-2′-fluoro corresponding nucleoside”; modified_base 1,3,4,5,6,7,8,9,13,14,15,17,18,19,20,21,22 /mod_base = “2′-O-methyl correspon)
Relative Expression day 4 (Hif2α mRNA in kidney tumor) [2]: 0.138

AD02694 (antisense UUUCAUGAAAUCGUUACGUUG; sense ACGUAACGAUUUCAUGAAAT; Hif2alpha RNAi agent antisense strand; modified_base 2,4,6,8,10,14,16,18 /mod_base = “2′-deoxy-2′-fluoro corresponding nucleoside”; modified_base 1,3,5,7,9,11,12,13,15,17,19,20,21 /mod_base = “2′-O-methyl corresponding nucleoside”; modified_base 2,3,20,21 /mod_base = “5′-phosphorothioate corresponding nucleotide”; Hif2alpha RNAi agent sense strand; modified_base 3,7,9,13,17 /mod_base = “2′-deoxy-2′-fluoro corresponding nucleoside”; modified_base 1,2,4,5,6,8,10,11,12,14,15,16,18,19 /mod_base = “2′-O-methyl corresponding nucleoside”; modified_base 20 /mod_base = “3′-3′-linked nucleotide”; modi)
Relative Expression day 4 (Hif2α mRNA in kidney tumor) (RNAi trigger 75 μg, polymer 064 187.5 μg): 0.099

AD01023 (antisense TCUAGCAACAAAACCUUAATT; sense UUAAGGUUUUGUUGCUAGAT; Hif2alpha RNAi agent antisense strand; modified_base 2,4,8,10,12,14,16,18 /mod_base = “2′-deoxy-2′-fluoro corresponding nucleoside”; modified_base 3,5,7,9,11,13,15,17,19 /mod_base = “2′-O-methyl corresponding nucleoside”; modified_base 6 /mod_base = “2′-3′ seco corresponding nucleotide”; modified_base 21 /mod_base = “5′-phosphorothioate corresponding nucleotide”; Hif2alpha RNAi agent sense strand; modified_base 1,3,5,7,9,11,13,15,17,19 /mod_base = “2′-deoxy-2′-fluoro corresponding nucleoside”; modified_base 2,4,6,8,10,12,14,16,18 /mod_base = “2′-O-methyl corresponding nucleoside”; modified_b)
Relative Expression day 4 (Hif2α mRNA in kidney tumor) (RNAi trigger 80 μg, polymer 126 400 μg): 0.93
